Results from US4194006A, “Therapeutic application of acetyl-d,l-carnitine and other acyl derivatives of d,l-carnitine” (priority 1977, dated 1980).
Like-named read-outs stand apart in the source and are kept apart here.

How the values were obtained:
in vivo = conditions: mouse, in vivo, iv
Source text: The tolerance of acetyl-d,l-carnitine and of the other aforementioned acyl derivatives of the formula (I), as well as their salts were investigated by comparing the LD50 obtained by administering the compounds intravenously in mice with the LD50 obtained under the same experimental conditions by intravenous injection of d,l-carnitine.

heart homogenates = assay: oxygen consumption (Q O2) in heart homogenates with and without added CoA; assay type: biochemical; conditions: compound 10^-3 M
isolated rabbit hearts [1] = assay: cardiokinetic effect on isolated heart (Langendorff): contractile force after anoxia, positive inotropic effect; conditions: 10 minutes from interruption of anoxic period
Summary of the method: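 Rabbit hearts were perfused Langendorff-style with oxygenated Ringer at 38.2 °C. Anoxia was applied until contractile force dropped by 80%, then the hearts were reoxygenated with or without compound. Contractile force was expressed as a percentage 10 min after the anoxic period ended.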

isolated rat atrium = assay: antiarrhythmic effect, isolated rat atrium method of M. Libonati and G. Segre; conditions: Rattus norvegicus
isolated rabbit hearts [2] = assay: coronary vasodilator effect: coronary flow, isolated heart (Langendorff)
Summary of the method: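 Langendorff-perfused isolated rabbit hearts in oxygenated Ringer at 38.2° C; anoxia imposed until contractile force fell by 80%, then reoxygenated with or without test compound. Coronary flow, isometric contraction and ECG recorded by polygraph.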

female rats = assay: antifatigue effect: rota-rod; assay type: in vivo, rat; conditions: Rattus norvegicus, ip, 0.25 h; for responders at 200 mg/kg: read-out: percentage of animals staying on the rota-rod more than 180 seconds, 200 mg/kg i.p.; for responders at 300 mg/kg: read-out: percentage of animals staying on the rota-rod more than 180 seconds, 300 mg/kg i.p.; for responders at 400 mg/kg: read-out: percentage of animals staying on the rota-rod more than 180 seconds, 400 mg/kg i.p.; for responders at 600 mg/kg: read-out: percentage of animals staying on the rota-rod more than 180 seconds, 600 mg/kg i.p.; for responders at 100 mg/kg: read-out: percentage of animals staying on the rota-rod more than 180 seconds, 100 mg/kg i.p.
Summary of the method: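 Female rats dosed intraperitoneally in saline, with controls given saline alone. Every 15 min after treatment animals were placed on a 6 cm rod rotating at 16 r.p.m. Value is the percentage of animals staying on the rod for more than 180 s, per session.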

[3] = read-out: Mean percent variation versus controls: excitability (-%)
[4] = read-out: Mean percent variation versus controls: frequency max (-%)
[5] = read-out: Mean percent variation versus controls: refractory period (+%)
[6] = read-out: Mean percent variation versus controls: rheobase (+%)
[7] = session 5 (every 15 minutes), * p < 0.05
[8] = session 6 (every 15 minutes), * p < 0.05

In the case of `C[N+](C)(C)CC(O)CC(=O)[O-]` (racemic) [d,l-carnitine, γ-trimethyl amino β-hydroxy butyric acid], the LD50 (in vivo) is reported as about 610 mg/kg, the “Q O2” value (heart homogenates; added CoA 0) is reported as 7.0 μlO2 /mg protein/hr and the “Q O2” value (heart homogenates; added CoA 2 × 10^-6 M) is reported as 8.4 μlO2 /mg protein/hr. The “Q O2” value (heart homogenates; added CoA 4 × 10^-6 M) was 19.5 μlO2 /mg protein/hr, the “Q O2” value (heart homogenates; added CoA 8 × 10^-7 M) was 8.1 μlO2 /mg protein/hr and the “Contractile force, Mean ± S.E.” value (isolated rabbit hearts [1]; 1·10^-5 g/lt) was 50.9 ± 3.01%. For the same molecule, the “Contractile force, Mean ± S.E.” value (isolated rabbit hearts [1]; 1·10^-6 g/lt) was 28.4 ± 3.15%, the “Contractile force, Mean ± S.E.” value (isolated rabbit hearts [1]; 5·10^-6 g/lt) was 32.2 ± 2.90% and the inhibition at 0.001 µg/mL (isolated rat atrium; [3]) was 12.7%. For the same molecule, the inhibition at 0.01 µg/mL (isolated rat atrium; [3]) was 19.3%, the inhibition at 0.1 µg/mL (isolated rat atrium; [3]) was 27.1% and the inhibition at 0.001 µg/mL (isolated rat atrium; [4]) was 7.28%. For the same molecule, the inhibition at 0.01 µg/mL (isolated rat atrium; [4]) was 23.6%, the inhibition at 0.1 µg/mL (isolated rat atrium; [4]) was 25.2% and the activation at 0.001 µg/mL (isolated rat atrium; [5]) was 18.3%. The activation at 0.01 µg/mL (isolated rat atrium; [5]) was 26%, the activation at 0.1 µg/mL (isolated rat atrium; [5]) was 31.1% and the activation at 0.001 µg/mL (isolated rat atrium; [6]) was 5.81%. The activation at 0.01 µg/mL (isolated rat atrium; [6]) was 9.07%, the activation at 0.1 µg/mL (isolated rat atrium; [6]) was 20.3% and the “Coronary flow, Mean ± S.E.” value (isolated rabbit hearts [2]; 1·10^-5 g/lt) was 85.18 ± 3.26%. The “Coronary flow, Mean ± S.E.” value (isolated rabbit hearts [2]; 1·10^-6 g/lt) was 74.02 ± 6.17%, the “Coronary flow, Mean ± S.E.” value (isolated rabbit hearts [2]; 5·10^-6 g/lt) was 77.85 ± 3.01% and the responders at 200 mg/kg (female rats; session 1 (every 15 minutes)) was 0%. For the same molecule, the responders at 200 mg/kg (female rats; session 2 (every 15 minutes)) was 0%, the responders at 200 mg/kg (female rats; session 3 (every 15 minutes)) was 0% and the responders at 200 mg/kg (female rats; session 4 (every 15 minutes)) was 0%. The responders at 200 mg/kg (female rats; [7]) was 0%, the responders at 200 mg/kg (female rats; [8]) was 0% and the responders at 300 mg/kg (female rats; session 1 (every 15 minutes)) was 0%. For the same molecule, the responders at 300 mg/kg (female rats; session 2 (every 15 minutes)) was 0%, the responders at 300 mg/kg (female rats; session 3 (every 15 minutes)) was 0% and the responders at 300 mg/kg (female rats; session 4 (every 15 minutes)) was 0%. The responders at 300 mg/kg (female rats; session 5 (every 15 minutes)) was 10%, the responders at 300 mg/kg (female rats; session 6 (every 15 minutes)) was 10% and the responders at 400 mg/kg (female rats; session 1 (every 15 minutes)) was 0%. For the same molecule, the responders at 400 mg/kg (female rats; session 2 (every 15 minutes)) was 0%, the responders at 400 mg/kg (female rats; session 3 (every 15 minutes)) was 8.33% and the responders at 400 mg/kg (female rats; session 4 (every 15 minutes)) was 25%. For the same molecule, the responders at 400 mg/kg (female rats; session 5 (every 15 minutes)) was 25%, the responders at 400 mg/kg (female rats; [8]) was 25% and the responders at 600 mg/kg (female rats; session 1 (every 15 minutes)) was 0%. The responders at 600 mg/kg (female rats; session 2 (every 15 minutes)) was 16.7%, the responders at 600 mg/kg (female rats; session 3 (every 15 minutes)) was 16.7% and the responders at 600 mg/kg (female rats; session 4 (every 15 minutes)) was 16.7%. For the same molecule, the responders at 600 mg/kg (female rats; session 5 (every 15 minutes)) was 16.7% and the responders at 600 mg/kg (female rats; [8]) was 25%.

With `CC(=O)OC(CC(=O)[O-])C[N+](C)(C)C` (racemic) [acetyl-d,l-carnitine] the LD50 (in vivo) was about 770 mg/kg, the “Contractile force, Mean ± S.E.” value (isolated rabbit hearts [1]; 1·10^-5 g/lt) was 77.5 ± 3.29% and the “Contractile force, Mean ± S.E.” value (isolated rabbit hearts [1]; 1·10^-6 g/lt) was 32.5 ± 4.38%. For the same molecule, the “Contractile force, Mean ± S.E.” value (isolated rabbit hearts [1]; 5·10^-6 g/lt) was 42.9 ± 6.22%, the inhibition at 0.001 µg/mL (isolated rat atrium; [3]) was 7.18% and the inhibition at 0.01 µg/mL (isolated rat atrium; [3]) was 18.6%. For the same molecule, the inhibition at 0.1 µg/mL (isolated rat atrium; [3]) was 71%, the inhibition at 0.001 µg/mL (isolated rat atrium; [4]) was 6.08% and the inhibition at 0.01 µg/mL (isolated rat atrium; [4]) was 15%. The inhibition at 0.1 µg/mL (isolated rat atrium; [4]) was 23.6%, the activation at 0.001 µg/mL (isolated rat atrium; [5]) was 14.5% and the activation at 0.01 µg/mL (isolated rat atrium; [5]) was 16.8%. It also gave an activation at 0.1 µg/mL (isolated rat atrium; [5]) of 27.4%, an activation at 0.001 µg/mL (isolated rat atrium; [6]) of 3.32% and an activation at 0.01 µg/mL (isolated rat atrium; [6]) of 15.3%. The activation at 0.1 µg/mL (isolated rat atrium; [6]) was 21.7%, the “Coronary flow, Mean ± S.E.” value (isolated rabbit hearts [2]; 1·10^-5 g/lt) was 90.05 ± 7.10% and the “Coronary flow, Mean ± S.E.” value (isolated rabbit hearts [2]; 1·10^-6 g/lt) was 75.80 ± 5.92%. The “Coronary flow, Mean ± S.E.” value (isolated rabbit hearts [2]; 5·10^-6 g/lt) was 76.30 ± 11.9%, the responders at 100 mg/kg (female rats; session 1 (every 15 minutes)) was 0% and the responders at 100 mg/kg (female rats; session 2 (every 15 minutes)) was 0%. The responders at 100 mg/kg (female rats; session 3 (every 15 minutes)) was 0%, the responders at 100 mg/kg (female rats; session 4 (every 15 minutes)) was 0% and the responders at 100 mg/kg (female rats; session 5 (every 15 minutes)) was 0%. It also gave a responders at 100 mg/kg (female rats; session 6 (every 15 minutes)) of 10%, a responders at 200 mg/kg (female rats; session 1 (every 15 minutes)) of 0% and a responders at 200 mg/kg (female rats; session 2 (every 15 minutes)) of 0%. The responders at 200 mg/kg (female rats; session 3 (every 15 minutes)) was 0%, the responders at 200 mg/kg (female rats; session 4 (every 15 minutes)) was 30% and the responders at 200 mg/kg (female rats; [7]) was 50%. For the same molecule, the responders at 200 mg/kg (female rats; [8]) was 50%, the responders at 400 mg/kg (female rats; session 1 (every 15 minutes)) was 0% and the responders at 400 mg/kg (female rats; session 2 (every 15 minutes)) was 10%. The responders at 400 mg/kg (female rats; session 3 (every 15 minutes)) was 10%, the responders at 400 mg/kg (female rats; session 4 (every 15 minutes)) was 10% and the responders at 400 mg/kg (female rats; session 5 (every 15 minutes)) was 40%. For the same molecule, the responders at 400 mg/kg (female rats; [8]) was 50%, the responders at 600 mg/kg (female rats; session 1 (every 15 minutes)) was 0% and the responders at 600 mg/kg (female rats; session 2 (every 15 minutes)) was 0%. It also gave a responders at 600 mg/kg (female rats; session 3 (every 15 minutes)) of 10%, a responders at 600 mg/kg (female rats; session 4 (every 15 minutes)) of 20% and a responders at 600 mg/kg (female rats; session 5 (every 15 minutes)) of 40%. The responders at 600 mg/kg (female rats; [8]) was 50%.
